Test results from patent US8993782B2, “Cis-alkoxyspirocyclic biphenyl-substituted tetramic acid derivatives” (Bayer CropScience AG, priority 2006, dated 2015).

Assays:
Assay type in all cases: in vivo
Myzus persicae = Myzus persicae test, spray, activity boost by ammonium salt and penetrant (Example 2); conditions: 0.8 ppm active compound
Method: Activity Boost Through Ammonium/Phosphonium Salts in Combination with Penetrants
(§1) Solvent: 7 parts by weight of dimethylformamide
(§2) Emulsifier: 2 parts by weight of alkylaryl polyglycol ether
To produce a suitable preparation of active compound, 1 part by weight of active compound is mixed with the stated amounts of solvent and emulsifier, and the concentrate is diluted with water to the desired concentration. For application with ammonium salts or phosphonium salts and penetrants (rapeseed oil methyl ester 500 EW) these are added in each case in a concentration of 1000 ppm to the spray liquor.
Bell pepper plants (Capsicum annuum) which are heavily infested by the green peach aphid (Myzus persicae) are treated with the active compound preparation of the desired concentration by spraying to runoff point. After the desired period of time, the kill in % is determined. 100% means that all animals have been killed; 0% means that none of the animals have been killed.

Aphis gossypii [1] = assay: Aphis gossypii test, spray, ammonium salt and penetrant (Example 3); conditions: 20 ppm active compound
Method: Aphis gossypii Test Solvent: 7 parts by weight of dimethylformamide Emulsifier: 2 parts by weight of alkylaryl polyglycol ether To produce a suitable preparation of active compound, 1 part by weight of active compound is mixed with the stated amounts of solvent and emulsifier, and the concentrate is diluted with emulsifier-containing water to the desired concentration. For application with ammonium salts or phosphonium salts and penetrant (rapeseed oil methyl ester 500 EW) these are added in each case in a concentration of 1000 ppm (a.i.) to the spray liquor. Cotton plants (Gossypium hirsutum) which are heavily infested by the cotton aphid (Aphis gossypii) are treated with the active compound preparation of the desired concentration by spraying to runoff point. After the desired period of time, the kill in % is determined. 100% means that all aphids have been killed; 0% means that none of the aphids have been killed.

Aphis gossypii [2] = assay: Aphis gossypii test, spray, with/without ammonium salt (Example 1); conditions: 20 ppm active compound, cotton plants sprayed to runoff
Method: as §1, §2
To produce a suitable preparation of active compound, 1 part by weight of active compound is mixed with the stated amounts of solvent and emulsifier, and the concentrate is diluted with emulsifier-containing water to the desired concentration. For application with ammonium salts or phosphonium salts these are added in a concentration of 1000 ppm to the spray liquor.
Cotton plants (Gossypium hirsutum) which are severely infested with cotton aphids (Aphis gossypii) are treated by spraying to runoff point with the preparation of the active substance at the desired concentration.
After the desired period of time, the kill in % is determined. 100% means that all aphids have been killed; 0% means that none of the aphids have been killed.

Row | Structure (SMILES) | Kill rate/% after 6 days (Myzus persicae; +AS (1000 ppm)) [%] | Kill rate/% after 6 days (Myzus persicae; +RME (1000 ppm)) [%] | Kill rate/% after 6 days (Myzus persicae; +RME + AS (1000 ppm each)) [%] | Kill rate/% after 6 days (Myzus persicae; bell pepper plants sprayed to runoff, no additive) [%] | Kill rate/% after 6 days (Aphis gossypii [1]; +AS (1000 ppm)) [%] | Kill rate/% after 6 days (Aphis gossypii [1]; +RME (1000 ppm)) [%] | Kill rate/% after 6 days (Aphis gossypii [1]; +RME + AS (1000 ppm each)) [%] | Kill rate/% after 6 days (Aphis gossypii [1]; cotton plants sprayed to runoff, no additive) [%] | Kill rate/% after 6 days (Aphis gossypii [2]; +AS (1000 ppm)) [%] | Kill rate/% after 6 days (Aphis gossypii [2]; no additive) [%]
1 | CO[C@H]1CC[C@]2(CC1)NC(=O)C(c1cc(-c3ccc(F)cc3)ccc1C)=C2O [I-a-1] | 0 | 30 | 70 | 10 | 15 | 70 | 80 | 5 |  | 
2 | COC1CCC2(CC1)NC(=O)C(c1c(C)ccc(-c3ccc(F)cc3)c1C)=C2O (stereo not shown) [I-a-2] |  |  |  |  |  |  |  |  | 25 | 15
